From patent publication US20040127504A1, “Benzimidazoles that are useful in treating sexual dysfunction” (priority 2002, published 2004)

Legend:
Male Fitch ferrets = test system: Male Fitch ferrets; parameters: species or system ferret; details: in vivo, sc
Description: Male Fitch ferrets (body weights 1.0-1.5 kg) were obtained from Marshall Farms. Ferrets were fasted overnight before experimentation. Apomorphine or a compound of the present invention was administrated subcutaneously; animals were placed individually in observation cages and the drug-induced emesis and signs of nausea were determined (by direct observation) for a period of 90 minutes following drug injection. Nausea was characterized by behaviors such as licking, gagging, backing, head burying, and intense abdominal grooming. Emesis was usually preceded by these behaviors and was characterized by rhythmic abdominal contractions which were associated with vomiting or retching movement.
Sterile saline was used as vehicle. Six animals were used per dose.

SMILES: Oc1ccc(N2CCN(Cc3nc4ccccc4[nH]3)CC2)cc1 [Example 17, 4-[4-(1H-benzimidazol-2-ylmethyl)piperazin-1-yl]phenol]
- melting point: 206 to 209 °C

SMILES: N#Cc1ccccc1N1CCN(Cc2nc3ccccc3[nH]2)CC1 [Example 12, 2-[4-(1H-benzimidazol-2-ylmethyl)piperazin-1-yl]benzonitrile]
- melting point: 236 to 237 °C

SMILES: CSc1ccccc1N1CCN(Cc2nc3ccccc3[nH]2)CC1 [Example 18, 2-({4-[2-(methylthio)phenyl]piperazin-1-yl}methyl)-1H-benzimidazole]
- melting point: 214 to 216 °C

SMILES: Clc1ccccc1N1CCN(Cc2nc3ccccc3[nH]2)CC1 [Example 13, 2-{[4-(2-chlorophenyl)piperazin-1-yl]methyl}-1H-benzimidazole]
- melting point: 245 to 246 °C

SMILES: Oc1ccc(N2CCN(Cc3nc4ccccc4[nH]3)CC2)nc1 [6-[4-(1H-benzimidazol-2-ylmethyl)piperazin-1-yl]pyridin-3-ol]
- melting point: 144 to 145 °C

SMILES: Fc1cccnc1N1CCN(Cc2nc3ccccc3[nH]2)CC1 [Example 28, 2-{[4-(3-fluoropyridin-2-yl)piperazin-1-yl]methyl}-1H-benzimidazole]
- melting point: 210 to 212 °C

SMILES: N#Cc1cccnc1N1CCN(Cc2nc3ccccc3[nH]2)CC1 [Example 4, 2-[4-(1H-benzimidazol-2-ylmethyl)piperazin-1-yl]nicotinonitrile]
- melting point: 208 to 210 °C

SMILES: O=C(N1CCCC1)n1c(CN2CCN(c3ccccn3)CC2)nc2ccccc21 [Example 9, 2-[(4-pyridin-2-ylpiperazin-1-yl)methyl]-1-(pyrrolidin-1-ylcarbonyl)-1H-benzimidazole]
- melting point: 120 to 121 °C

SMILES: C[C@@H]1CN(c2ccccn2)CCN1Cc1nc2ccccc2[nH]1 [Example 26, 2-{[(2R)-2-methyl-4-pyridin-2-ylpiperazin-1-yl]methyl}-1H-benzimidazole]
- melting point: 151 to 153 °C

SMILES: c1cnc(N2CCN(Cc3nc4ccccc4[nH]3)CC2)nc1 [Example 2, 2-[(4-pyrimidin-2-ylpiperazin-1-yl)methyl]-1H-benzimidazole]
- melting point: 198 to 200 °C

SMILES: c1ccc2[nH]c(CN3CCN(c4nccs4)CC3)nc2c1 [Example 7, 2-{[4-(1,3-thiazol-2-yl)piperazin-1-yl]methyl}-1H-benzimidazole]
- melting point: 203 to 205 °C

SMILES: Fc1ccccc1N1CCN(Cc2nc3ccccc3[nH]2)CC1 [Example 14, 2-{[4-(2-fluorophenyl)piperazin-1-yl]methyl}-1H-benzimidazole]
- melting point: 262 to 264 °C

SMILES: Oc1ccccc1N1CCN(Cc2nc3ccccc3[nH]2)CC1 [Example 20, 2-[4-(1H-benzimidazol-2-ylmethyl)piperazin-1-yl]phenol]
- melting point: 208 to 216 °C

SMILES: CC1CN(c2ccccn2)CCN1Cc1nc2ccccc2[nH]1 (centres unmarked) [Example 24, 2-[(2-methyl-4-pyridin-2-ylpiperazin-1-yl)methyl]-1H-benzimidazole]
- melting point: 207 to 209 °C

SMILES: C[C@H]1CN(c2ccccn2)CCN1Cc1nc2ccccc2[nH]1 [Example 25, 2-{[(2S)-2-methyl-4-pyridin-2-ylpiperazin-1-yl]methyl}-1H-benzimidazole]
- melting point: 149 to 151 °C

SMILES: CN(C)C(=O)n1c(CN2CCN(c3ccccn3)CC2)nc2ccccc21 [Example 10, N,N-dimethyl-2-[(4-pyridin-2-ylpiperazin-1-yl)methyl]-1H-benzimidazole-1-carboxamide]
- melting point: 174 to 176 °C

SMILES: c1ccc(N2CCN(Cc3nc4ccccc4[nH]3)CC2)nc1 [2-[(4-pyridin-2-ylpiperazin-1-yl)methyl]-1H-benzimidazole]
- induction of emesis in ferrets (Male Fitch ferrets): did not induce emesis
